Test results as given in ChEMBL document CHEMBL3991601, “The target landscape of clinical kinase drugs” (Science, 2017).
Activity calls are given as the source filed them.

How the values were obtained:
[1] = molecular target: Protein kinase C delta type (Homo sapiens, UniProt Q05655)
[2] = molecular target: Mitotic checkpoint serine/threonine-protein kinase BUB1 (Homo sapiens, UniProt O43683)
[3] = molecular target: Serine/threonine-protein kinase MRCK alpha (Homo sapiens, UniProt Q5VT25)
[4] = molecular target: Cyclin-dependent kinase 2 (Homo sapiens, UniProt P24941)
[5] = molecular target: MAP kinase-activated protein kinase 2 (Homo sapiens, UniProt P49137)
[6] = molecular target: T1, Ras-related protein Rab-27A (Homo sapiens, UniProt P51159)
T1 sequence (P51159 whole entry): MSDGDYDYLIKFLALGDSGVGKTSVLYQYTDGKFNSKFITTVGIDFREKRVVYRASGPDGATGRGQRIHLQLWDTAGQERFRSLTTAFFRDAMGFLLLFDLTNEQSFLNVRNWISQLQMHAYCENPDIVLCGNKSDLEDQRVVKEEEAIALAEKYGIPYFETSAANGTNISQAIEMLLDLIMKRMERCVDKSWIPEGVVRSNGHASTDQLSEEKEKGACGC

[7] = molecular target: Mitogen-activated protein kinase 3 (Homo sapiens, UniProt P27361)
[8] = molecular target: Membrane-associated progesterone receptor component 1 (Homo sapiens, UniProt O00264)
[9] = molecular target: Insulin-like growth factor 1 receptor (Homo sapiens, UniProt P08069)
[10] = molecular target: Tyrosine-protein kinase Lck (Homo sapiens, UniProt P06239)
[11] = molecular target: T2, Glycogen phosphorylase, brain form (Homo sapiens, UniProt P11216)
T2 sequence (P11216 whole entry): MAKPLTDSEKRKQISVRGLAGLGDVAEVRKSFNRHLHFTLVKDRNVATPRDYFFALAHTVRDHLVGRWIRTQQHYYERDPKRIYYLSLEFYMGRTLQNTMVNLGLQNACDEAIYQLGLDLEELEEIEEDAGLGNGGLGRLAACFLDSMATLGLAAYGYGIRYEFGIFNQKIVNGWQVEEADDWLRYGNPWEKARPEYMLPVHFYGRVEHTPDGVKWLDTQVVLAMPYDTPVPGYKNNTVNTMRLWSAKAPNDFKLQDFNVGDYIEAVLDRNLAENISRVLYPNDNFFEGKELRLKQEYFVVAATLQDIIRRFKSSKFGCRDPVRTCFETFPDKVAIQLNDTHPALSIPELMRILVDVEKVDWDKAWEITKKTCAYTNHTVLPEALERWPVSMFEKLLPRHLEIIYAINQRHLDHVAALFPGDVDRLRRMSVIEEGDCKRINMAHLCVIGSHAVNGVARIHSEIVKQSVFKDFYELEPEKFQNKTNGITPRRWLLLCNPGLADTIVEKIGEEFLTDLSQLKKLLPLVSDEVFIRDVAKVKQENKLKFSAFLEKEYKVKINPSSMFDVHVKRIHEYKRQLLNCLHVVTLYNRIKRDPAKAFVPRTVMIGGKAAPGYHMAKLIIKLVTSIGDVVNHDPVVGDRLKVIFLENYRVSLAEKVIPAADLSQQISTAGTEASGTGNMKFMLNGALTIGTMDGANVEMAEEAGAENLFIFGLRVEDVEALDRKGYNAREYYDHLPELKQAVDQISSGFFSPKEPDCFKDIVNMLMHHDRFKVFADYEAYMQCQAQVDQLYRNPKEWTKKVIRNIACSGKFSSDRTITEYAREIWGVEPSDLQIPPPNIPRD

[12] = molecular target: T3, Serine/threonine-protein kinase ICK (Homo sapiens, UniProt Q9UPZ9)
T3 sequence (Q9UPZ9 whole entry): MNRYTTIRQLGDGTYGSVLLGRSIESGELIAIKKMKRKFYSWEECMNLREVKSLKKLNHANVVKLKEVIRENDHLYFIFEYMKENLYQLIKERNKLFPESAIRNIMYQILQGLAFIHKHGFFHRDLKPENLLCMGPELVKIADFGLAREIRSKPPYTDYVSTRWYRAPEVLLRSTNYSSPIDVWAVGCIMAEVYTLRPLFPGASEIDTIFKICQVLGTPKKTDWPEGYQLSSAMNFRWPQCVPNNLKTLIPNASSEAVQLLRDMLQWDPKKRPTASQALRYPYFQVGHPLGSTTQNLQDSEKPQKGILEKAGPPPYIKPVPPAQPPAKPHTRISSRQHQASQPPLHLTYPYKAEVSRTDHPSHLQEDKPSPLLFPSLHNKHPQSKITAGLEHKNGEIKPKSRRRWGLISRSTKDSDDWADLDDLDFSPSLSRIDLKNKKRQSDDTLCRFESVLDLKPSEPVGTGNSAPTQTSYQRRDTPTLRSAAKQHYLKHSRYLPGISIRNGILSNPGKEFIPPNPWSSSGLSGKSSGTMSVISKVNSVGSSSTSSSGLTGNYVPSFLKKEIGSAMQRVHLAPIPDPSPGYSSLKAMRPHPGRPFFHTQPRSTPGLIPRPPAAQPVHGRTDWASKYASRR
Further: in the data inactive means no Kd found up to 30 µM.

Sequence of Membrane-associated progesterone receptor component 1 (O00264 whole entry): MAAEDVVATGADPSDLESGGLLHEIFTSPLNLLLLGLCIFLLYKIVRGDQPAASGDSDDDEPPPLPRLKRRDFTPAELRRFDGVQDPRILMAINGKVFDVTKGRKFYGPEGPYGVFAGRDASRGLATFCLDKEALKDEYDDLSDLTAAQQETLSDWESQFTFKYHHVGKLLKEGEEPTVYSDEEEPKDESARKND
Sequence of Serine/threonine-protein kinase MRCK alpha (Q5VT25 whole entry): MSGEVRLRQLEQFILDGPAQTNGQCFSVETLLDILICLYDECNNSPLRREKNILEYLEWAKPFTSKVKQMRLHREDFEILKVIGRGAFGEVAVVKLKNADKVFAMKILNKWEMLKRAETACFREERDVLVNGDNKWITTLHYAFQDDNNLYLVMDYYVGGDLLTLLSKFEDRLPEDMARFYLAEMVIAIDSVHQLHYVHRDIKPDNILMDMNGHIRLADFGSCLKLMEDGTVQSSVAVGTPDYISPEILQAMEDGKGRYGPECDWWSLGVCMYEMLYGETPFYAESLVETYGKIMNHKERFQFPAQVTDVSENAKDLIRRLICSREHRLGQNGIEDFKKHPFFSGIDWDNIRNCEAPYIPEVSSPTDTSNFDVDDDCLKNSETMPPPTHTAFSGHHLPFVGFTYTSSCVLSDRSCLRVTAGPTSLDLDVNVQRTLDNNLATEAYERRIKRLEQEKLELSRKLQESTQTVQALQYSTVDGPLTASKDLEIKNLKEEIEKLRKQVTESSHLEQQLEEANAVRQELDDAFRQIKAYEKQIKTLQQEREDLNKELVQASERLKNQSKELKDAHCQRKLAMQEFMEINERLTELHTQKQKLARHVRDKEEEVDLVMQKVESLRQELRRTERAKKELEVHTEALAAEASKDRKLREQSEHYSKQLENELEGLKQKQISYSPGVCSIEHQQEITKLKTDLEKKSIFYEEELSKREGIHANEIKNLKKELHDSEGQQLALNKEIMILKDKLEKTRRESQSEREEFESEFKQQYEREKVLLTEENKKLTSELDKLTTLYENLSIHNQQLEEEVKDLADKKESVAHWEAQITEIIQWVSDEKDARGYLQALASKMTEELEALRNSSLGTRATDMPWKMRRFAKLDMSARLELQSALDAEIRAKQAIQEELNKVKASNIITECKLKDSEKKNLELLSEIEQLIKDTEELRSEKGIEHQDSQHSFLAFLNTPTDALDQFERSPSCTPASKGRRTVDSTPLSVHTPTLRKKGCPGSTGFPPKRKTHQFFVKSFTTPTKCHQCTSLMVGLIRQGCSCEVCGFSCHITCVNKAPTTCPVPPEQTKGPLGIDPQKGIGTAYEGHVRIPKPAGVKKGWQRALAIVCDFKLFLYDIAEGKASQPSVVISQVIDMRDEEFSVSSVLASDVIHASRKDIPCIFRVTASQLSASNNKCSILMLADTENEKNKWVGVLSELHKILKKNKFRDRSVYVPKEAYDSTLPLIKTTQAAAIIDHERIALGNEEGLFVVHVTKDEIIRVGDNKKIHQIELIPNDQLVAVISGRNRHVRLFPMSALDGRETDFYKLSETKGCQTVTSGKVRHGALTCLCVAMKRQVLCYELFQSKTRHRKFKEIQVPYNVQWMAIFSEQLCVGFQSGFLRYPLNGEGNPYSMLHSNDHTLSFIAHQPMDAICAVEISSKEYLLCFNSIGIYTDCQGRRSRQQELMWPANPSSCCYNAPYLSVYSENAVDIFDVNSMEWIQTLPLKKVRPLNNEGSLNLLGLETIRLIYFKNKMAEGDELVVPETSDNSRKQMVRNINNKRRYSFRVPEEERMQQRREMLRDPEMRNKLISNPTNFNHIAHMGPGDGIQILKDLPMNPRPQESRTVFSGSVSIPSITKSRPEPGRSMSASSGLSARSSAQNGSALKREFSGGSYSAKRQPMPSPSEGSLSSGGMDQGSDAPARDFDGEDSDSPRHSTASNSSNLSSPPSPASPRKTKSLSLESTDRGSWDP
Sequence of Insulin-like growth factor 1 receptor (P08069 31-736 limits assumed): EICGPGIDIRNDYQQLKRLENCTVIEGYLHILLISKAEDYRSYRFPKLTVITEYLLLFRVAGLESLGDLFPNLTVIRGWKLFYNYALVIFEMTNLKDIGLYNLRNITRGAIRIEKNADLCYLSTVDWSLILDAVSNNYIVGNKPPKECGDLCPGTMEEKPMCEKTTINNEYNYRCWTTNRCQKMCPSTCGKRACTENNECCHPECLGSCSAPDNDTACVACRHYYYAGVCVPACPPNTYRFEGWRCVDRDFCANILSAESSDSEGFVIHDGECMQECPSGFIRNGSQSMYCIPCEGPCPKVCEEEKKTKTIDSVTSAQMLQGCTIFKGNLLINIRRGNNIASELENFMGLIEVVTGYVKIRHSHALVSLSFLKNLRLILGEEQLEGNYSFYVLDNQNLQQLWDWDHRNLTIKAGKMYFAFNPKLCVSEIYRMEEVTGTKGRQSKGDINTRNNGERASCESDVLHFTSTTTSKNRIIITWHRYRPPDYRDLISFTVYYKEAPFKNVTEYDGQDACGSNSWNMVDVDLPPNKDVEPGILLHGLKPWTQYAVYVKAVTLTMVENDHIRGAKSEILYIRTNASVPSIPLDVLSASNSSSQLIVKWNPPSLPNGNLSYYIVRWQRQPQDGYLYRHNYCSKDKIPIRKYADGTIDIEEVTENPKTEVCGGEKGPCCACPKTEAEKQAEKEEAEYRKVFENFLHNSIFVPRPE
Sequence of Insulin-like growth factor 1 receptor (P08069 741-1367 limits assumed): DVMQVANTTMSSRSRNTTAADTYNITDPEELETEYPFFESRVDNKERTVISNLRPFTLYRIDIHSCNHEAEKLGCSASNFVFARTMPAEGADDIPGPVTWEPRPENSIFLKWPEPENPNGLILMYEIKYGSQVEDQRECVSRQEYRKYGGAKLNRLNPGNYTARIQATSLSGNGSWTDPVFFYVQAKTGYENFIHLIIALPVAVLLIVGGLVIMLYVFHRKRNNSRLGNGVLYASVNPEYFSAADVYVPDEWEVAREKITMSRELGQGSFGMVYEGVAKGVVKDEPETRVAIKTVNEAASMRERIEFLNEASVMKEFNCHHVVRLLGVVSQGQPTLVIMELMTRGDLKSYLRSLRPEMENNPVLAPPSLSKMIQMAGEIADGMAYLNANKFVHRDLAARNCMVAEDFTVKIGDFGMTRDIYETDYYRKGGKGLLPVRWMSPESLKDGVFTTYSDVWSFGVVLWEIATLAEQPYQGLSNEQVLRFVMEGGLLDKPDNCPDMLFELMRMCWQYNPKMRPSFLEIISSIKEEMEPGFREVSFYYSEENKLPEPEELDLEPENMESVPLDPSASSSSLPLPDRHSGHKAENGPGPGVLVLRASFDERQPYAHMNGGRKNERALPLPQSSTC
Sequence of Mitotic checkpoint serine/threonine-protein kinase BUB1 (O43683 whole entry): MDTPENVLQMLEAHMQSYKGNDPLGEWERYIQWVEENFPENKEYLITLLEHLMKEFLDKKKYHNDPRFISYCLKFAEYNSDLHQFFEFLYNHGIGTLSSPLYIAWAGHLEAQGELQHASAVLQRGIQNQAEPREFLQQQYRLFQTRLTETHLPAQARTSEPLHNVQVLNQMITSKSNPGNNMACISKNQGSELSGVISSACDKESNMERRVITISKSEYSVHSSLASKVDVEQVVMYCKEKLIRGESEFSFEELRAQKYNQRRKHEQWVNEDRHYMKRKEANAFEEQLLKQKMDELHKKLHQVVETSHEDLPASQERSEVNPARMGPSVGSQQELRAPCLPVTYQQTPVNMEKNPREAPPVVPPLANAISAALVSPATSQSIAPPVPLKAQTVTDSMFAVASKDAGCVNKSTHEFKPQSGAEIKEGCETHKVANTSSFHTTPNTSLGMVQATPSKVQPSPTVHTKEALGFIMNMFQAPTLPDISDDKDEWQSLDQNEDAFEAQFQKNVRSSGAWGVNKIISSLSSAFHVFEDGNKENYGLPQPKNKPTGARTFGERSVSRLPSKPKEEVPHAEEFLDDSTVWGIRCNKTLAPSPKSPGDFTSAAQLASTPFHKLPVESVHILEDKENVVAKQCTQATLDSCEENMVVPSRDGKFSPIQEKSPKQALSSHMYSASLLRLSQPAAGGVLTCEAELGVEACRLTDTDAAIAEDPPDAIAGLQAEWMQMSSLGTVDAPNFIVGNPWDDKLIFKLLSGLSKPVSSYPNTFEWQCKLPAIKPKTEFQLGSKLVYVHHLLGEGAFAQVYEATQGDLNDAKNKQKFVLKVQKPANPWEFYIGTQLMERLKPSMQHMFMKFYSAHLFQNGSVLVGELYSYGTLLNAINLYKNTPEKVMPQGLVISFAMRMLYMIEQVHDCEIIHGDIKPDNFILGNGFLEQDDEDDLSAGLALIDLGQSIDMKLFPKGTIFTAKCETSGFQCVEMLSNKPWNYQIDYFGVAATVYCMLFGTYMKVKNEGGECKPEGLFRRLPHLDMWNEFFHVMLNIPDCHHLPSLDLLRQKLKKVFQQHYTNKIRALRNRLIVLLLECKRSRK
Sequence of Mitogen-activated protein kinase 3 (P27361 whole entry): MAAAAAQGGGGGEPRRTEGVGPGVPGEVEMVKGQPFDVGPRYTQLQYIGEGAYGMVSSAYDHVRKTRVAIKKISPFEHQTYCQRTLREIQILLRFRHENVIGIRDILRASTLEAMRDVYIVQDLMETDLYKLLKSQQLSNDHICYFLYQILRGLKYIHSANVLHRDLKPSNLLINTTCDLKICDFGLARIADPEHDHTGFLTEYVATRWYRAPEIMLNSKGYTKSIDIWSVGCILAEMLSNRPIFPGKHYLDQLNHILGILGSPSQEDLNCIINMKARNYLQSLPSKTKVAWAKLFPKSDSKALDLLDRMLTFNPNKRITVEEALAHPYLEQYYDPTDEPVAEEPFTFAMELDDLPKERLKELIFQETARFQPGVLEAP

COCC(=O)NC/C=C/c1ccc2ncnc(Nc3ccc(Oc4ccc(C)nc4)c(C)c3)c2c1 [CP-724714]
Kd [1]: > 30 µM (inactive)
Kd [2]: > 30 µM (inactive)
Kd [3]: > 30 µM (inactive)
Kd [4]: > 30 µM (inactive)
Kd [5]: > 30 µM (inactive)
Kd [6]: > 30 µM (inactive)
Kd [7]: > 30 µM (inactive)
Kd [8]: > 30 µM (inactive)
Kd [9]: > 30 µM (inactive)
Kd [10]: > 30 µM (inactive)
Kd [11]: > 30 µM (inactive)
Kd [12]: > 30 µM (inactive)

Cc1cnc(NC(=O)Nc2cc(Br)c(C)cc2OC[C@@H]2CNCCO2)cn1 [RABUSERTIB]
Kd [1]: > 30 µM (inactive)
Kd [2]: > 30 µM (inactive)
Kd [3]: > 30 µM (inactive)
Kd [4]: > 30 µM (inactive)
Kd [5]: > 30 µM (inactive)
Kd [6]: > 30 µM (inactive)
Kd [7]: > 30 µM (inactive)
Kd [8]: > 30 µM (inactive)
Kd [9]: > 30 µM (inactive)
Kd [10]: > 30 µM (inactive)
Kd [11]: > 30 µM (inactive)
Kd [12]: > 30 µM (inactive)

Cc1cccc(-c2nn3c(c2-c2ccnc4ccc(C(N)=O)cc24)CCC3)n1 [GALUNISERTIB]
Kd [1]: > 30 µM (inactive)
Kd [2]: > 30 µM (inactive)
Kd [3]: > 30 µM (inactive)
Kd [4]: > 30 µM (inactive)
Kd [5]: > 30 µM (inactive)
Kd [6]: > 30 µM (inactive)
Kd [7]: > 30 µM (inactive)
Kd [8]: > 30 µM (inactive)
Kd [9]: > 30 µM (inactive)
Kd [10]: > 30 µM (inactive)
Kd [11]: > 30 µM (inactive)
Kd [12]: > 30 µM (inactive)

O=C(Nc1nc2cccc(-c3ccc(CN4CCS(=O)(=O)CC4)cc3)n2n1)C1CC1 [FILGOTINIB]
Kd [1]: > 30 µM (inactive)
Kd [2]: > 30 µM (inactive)
Kd [3]: > 30 µM (inactive)
Kd [4]: > 30 µM (inactive)
Kd [5]: > 30 µM (inactive)
Kd [6]: > 30 µM (inactive)
Kd [7]: > 30 µM (inactive)
Kd [8]: > 30 µM (inactive)
Kd [9]: > 30 µM (inactive)
Kd [10]: > 30 µM (inactive)
Kd [11]: > 30 µM (inactive)
Kd [12]: > 30 µM (inactive)

COc1cc([C@@H]2c3cc4c(cc3[C@H](O)[C@H]3COC(=O)[C@@H]23)OCO4)cc(OC)c1OC [AXL-1717]
Kd [1]: > 30 µM (inactive)
Kd [2]: > 30 µM (inactive)
Kd [3]: > 30 µM (inactive)
Kd [4]: > 30 µM (inactive)
Kd [5]: > 30 µM (inactive)
Kd [6]: > 30 µM (inactive)
Kd [7]: > 30 µM (inactive)
Kd [8]: > 30 µM (inactive)
Kd [9]: > 30 µM (inactive)
Kd [10]: > 30 µM (inactive)
Kd [11]: > 30 µM (inactive)
Kd [12]: > 30 µM (inactive)

Cc1csc(-c2nnc(Nc3ccc(Oc4ncccc4-c4ccnc(N)n4)cc3)c3ccccc23)c1 [AMG-900]
Kd [1]: 1.09 µM (active)
Kd [2]: > 30 µM (inactive)
Kd [3]: > 30 µM (inactive)
Kd [4]: > 30 µM (inactive)
Kd [5]: 2.69 µM (active)
Kd [6]: > 30 µM (inactive)
Kd [7]: > 30 µM (inactive)
Kd [8]: > 30 µM (inactive)
Kd [9]: > 30 µM (inactive)
Kd [10]: > 30 µM (inactive)
Kd [11]: > 30 µM (inactive)
Kd [12]: > 30 µM (inactive)

COCc1c(-c2ccc(NC(=O)Nc3cc(C(F)(F)F)ccc3F)c(F)c2)c2c(N)ncnn2c1CN1CCOCC1
Kd [1]: 5.08 µM (active)
Kd [2]: > 30 µM (inactive)
Kd [3]: > 30 µM (inactive)
Kd [4]: > 30 µM (inactive)
Kd [5]: > 30 µM (inactive)
Kd [6]: > 30 µM (inactive)
Kd [7]: > 30 µM (inactive)
Kd [8]: > 30 µM (inactive)
Kd [9]: > 30 µM (inactive)
Kd [10]: > 30 µM (inactive)
Kd [11]: > 30 µM (inactive)
Kd [12]: > 30 µM (inactive)

C=CC(=O)N1CCC[C@H](n2c(=O)n(-c3ccc(Oc4ccccc4)cc3)c3c(N)ncnc32)C1
Kd [1]: > 30 µM (inactive)
Kd [2]: > 30 µM (inactive)
Kd [3]: > 30 µM (inactive)
Kd [4]: > 30 µM (inactive)
Kd [5]: > 30 µM (inactive)
Kd [6]: > 30 µM (inactive)
Kd [7]: > 30 µM (inactive)
Kd [8]: > 30 µM (inactive)
Kd [9]: > 30 µM (inactive)
Kd [10]: 0.005 µM
Kd [11]: > 30 µM (inactive)
Kd [12]: > 30 µM (inactive)

COc1cc2c(Nc3ccc(Cl)c(Cl)c3F)ncnc2cc1OC[C@@H]1C[C@@H]2CN(C)C[C@@H]2C1 [TESEVATINIB]
Kd [1]: > 30 µM (inactive)
Kd [2]: > 30 µM (inactive)
Kd [3]: > 30 µM (inactive)
Kd [4]: > 30 µM (inactive)
Kd [5]: 1.52 µM (active)
Kd [6]: > 30 µM (inactive)
Kd [7]: > 30 µM (inactive)
Kd [8]: > 30 µM (inactive)
Kd [9]: > 30 µM (inactive)
Kd [10]: 0.207 µM (active)
Kd [11]: > 30 µM (inactive)
Kd [12]: > 30 µM (inactive)

Cn1cnc2c(F)c(Nc3ccc(Br)cc3F)c(C(=O)NOCCO)cc21 [BINIMETINIB]
Kd [1]: > 30 µM (inactive)
Kd [2]: > 30 µM (inactive)
Kd [3]: > 30 µM (inactive)
Kd [4]: > 30 µM (inactive)
Kd [5]: > 30 µM (inactive)
Kd [6]: > 30 µM (inactive)
Kd [7]: > 30 µM (inactive)
Kd [8]: > 30 µM (inactive)
Kd [9]: > 30 µM (inactive)
Kd [10]: > 30 µM (inactive)
Kd [11]: > 30 µM (inactive)
Kd [12]: > 30 µM (inactive)

O=c1[nH]ccc2cc(OC3CCNCC3)ccc12 [SAR-407899 FREE BASE]
Kd [1]: 0.021 µM (active)
Kd [2]: > 30 µM (inactive)
Kd [3]: 0.01 µM (active)
Kd [4]: > 30 µM (inactive)
Kd [5]: > 30 µM (inactive)
Kd [6]: > 30 µM (inactive)
Kd [7]: > 30 µM (inactive)
Kd [8]: > 30 µM (inactive)
Kd [9]: > 30 µM (inactive)
Kd [10]: > 30 µM (inactive)
Kd [11]: > 30 µM (inactive)
Kd [12]: > 30 µM (inactive)

C=CC(=O)Nc1cc2c(Nc3ccc(F)c(Cl)c3)ncnc2cc1C#CC(C)(C)N1CCN(C)CC1 [AV-412 FREE BASE]
Kd [1]: > 30 µM (inactive)
Kd [2]: > 30 µM (inactive)
Kd [3]: > 30 µM (inactive)
Kd [4]: > 30 µM (inactive)
Kd [5]: > 30 µM (inactive)
Kd [6]: > 30 µM (inactive)
Kd [7]: > 30 µM (inactive)
Kd [8]: > 30 µM (inactive)
Kd [9]: > 30 µM (inactive)
Kd [10]: > 30 µM (inactive)
Kd [11]: > 30 µM (inactive)
Kd [12]: > 30 µM (inactive)

C[C@@H](NC(=O)c1ncnc(N)c1Cl)c1ncc(C(=O)Nc2cc(C(F)(F)F)c(Cl)cn2)s1 [TOVORAFENIB]
Kd [1]: > 30 µM (inactive)
Kd [2]: > 30 µM (inactive)
Kd [3]: > 30 µM (inactive)
Kd [4]: > 30 µM (inactive)
Kd [5]: > 30 µM (inactive)
Kd [6]: > 30 µM (inactive)
Kd [7]: > 30 µM (inactive)
Kd [8]: > 30 µM (inactive)
Kd [9]: > 30 µM (inactive)
Kd [10]: > 30 µM (inactive)
Kd [11]: > 30 µM (inactive)
Kd [12]: > 30 µM (inactive)

Cn1cc(-c2cnn3c(N)c(Br)c([C@@H]4CCCNC4)nc23)cn1 [SCH-900776]
Kd [1]: 1.64 µM (active)
Kd [2]: > 30 µM (inactive)
Kd [3]: > 30 µM (inactive)
Kd [4]: > 30 µM (inactive)
Kd [5]: > 30 µM (inactive)
Kd [6]: > 30 µM (inactive)
Kd [7]: > 30 µM (inactive)
Kd [8]: > 30 µM (inactive)
Kd [9]: > 30 µM (inactive)
Kd [10]: > 30 µM (inactive)
Kd [11]: > 30 µM (inactive)
Kd [12]: > 30 µM (inactive)
